# Source: ChEMBL document CHEMBL1136768, “Structure-activity relationships of (S,Z)-2-aminopurine methylenecyclopropane analogues of nucleosides. Variation of purine-6 substituents and activity against herpesviruses and hepatitis B virus” (J Med Chem, 2003)
# Tests used:
# CCRF-CEM = test: Cytotoxicity in uninfected CEM cells; format: functional; details: Homo sapiens
# Hepatitis B virus = test: Inhibition of the replication of HBV in 2.2.15 cells, by DNA hybridization assay; format: functional, organism-based; details: HepG2 2.2.15
# Human gammaherpesvirus 4 [1] = test: Concentration inhibiting the replication of EBV in Daudi cells; format: functional, organism-based; details: human gammaherpesvirus 4, Daudi
# HFF [2] = test: Cytotoxicity was scored on uninfected HFF cells not affected by virus in the HCMV (AD169 strain) by neutral red uptake; format: functional
# Human gammaherpesvirus 4 [3] = test: Concentration inhibiting the replication of EBV in H-1 cells by DNA hybridization assay; format: functional, organism-based; details: human gammaherpesvirus 4, H-1
# Human betaherpesvirus 5 = test: Concentration inhibiting the replication of HCMV in HFF cells by plaque reduction assay; details: Human betaherpesvirus 5, HFF
# Human alphaherpesvirus 1 [4] = test: Concentration inhibiting the replication of HSV-1 in Vero cells determined by plaque reduction assay; format: functional, organism-based, herpes simplex virus; details: Human alphaherpesvirus 1, Vero
# Daudi [5] = test: Cytotoxicity in uninfected Daudi cells; format: functional; details: Homo sapiens
# Human alphaherpesvirus 1 [6] = test: Concentration inhibiting the replication of HSV-1 in BSC-1 cells determined by ELISA assay; format: functional, organism-based, herpes simplex virus; details: Human alphaherpesvirus 1, BSC-1
# Human alphaherpesvirus 2 = test: Concentration inhibiting the replication of HSV-2 in Vero cells.; format: functional, organism-based; details: Human alphaherpesvirus 2, Vero
# HFF [7] = test: Cytotoxicity against proliferating HFF cells; format: functional; details: Homo sapiens
# Murid betaherpesvirus 1 = test: Concentration inhibiting the replication of MCMV in MEF cells; format: functional, organism-based; details: Murid betaherpesvirus 1, MEF
# MEF = test: Cytotoxicity in uninfected MEF cells; format: functional; details: Mus musculus
# Daudi [8] = test: Concentration inhibiting the replication of EBV in Daudi cells by DNA hybridization assay; format: functional, cell-based; details: Homo sapiens
Compound,EC50 (Hepatitis B virus),EC50 (Human gammaherpesvirus 4 [1]),EC50 (Human gammaherpesvirus 4 [3]),EC50 (Human betaherpesvirus 5),EC50 (Human alphaherpesvirus 1 [4]),EC50 (Human alphaherpesvirus 1 [6]),EC50 (Human alphaherpesvirus 2),EC50 (Murid betaherpesvirus 1),EC50 (Daudi [8]),CC50 (CCRF-CEM),CC50 (HFF [2]),CC50 (Daudi [5]),CC50 (HFF [7]),CC50 (MEF)
COc1nc(N)nc2c1ncn2/C=C1/C[C@@H]1CO,> 10 µM,3.8 µM,0.44 µM,10 µM,23 µM,20 µM,16 µM,0.24 µM,1 µM,98 µM,,146 µM,15.8 µM,351 µM
C=CCNc1nc(N)nc2c1ncn2/C=C1/C[C@@H]1CO,20 µM,> 184 µM,18.5 µM,> 368 µM,18 µM,4 µM,21 µM,0.33 µM,,> 100 µM,,> 184 µM,> 368 µM,> 368 µM
CCCCCSc1nc(N)nc2c1ncn2/C=C1/C[C@@H]1CO,> 20 µM,39.8 µM,> 20 µM,> 80 µM,10 µM,7 µM,14 µM,1.5 µM,,26 µM,,> 157 µM,215 µM,171 µM
C=CCOc1nc(N)nc2c1ncn2/C=C1/C[C@@H]1CO,11 µM,> 183 µM,1.1 µM,2.3 µM,7 µM,1.5 µM,8 µM,0.29 µM,,26 µM,,> 183 µM,220 µM,> 366 µM
Nc1nc(O)c2ncn(/C=C3/C[C@@H]3CO)c2n1,> 10 µM,2.3 µM,0.47 µM,55 µM,50 µM,45 µM,> 50 µM,0.39 µM,< 0.34 µM,90 µM,,> 215 µM,257 µM,> 429 µM
Nc1nc(NCc2ccccc2)c2ncn(/C=C3/C[C@@H]3CO)c2n1,> 20 µM,> 155 µM,> 20 µM,> 62 µM,> 100 µM,> 50 µM,52 µM,,,> 50 µM,> 310 µM,,,25 µM
CCCOc1nc(N)nc2c1ncn2/C=C1/C[C@@H]1CO,4.1 µM,> 182 µM,1.5 µM,8 µM,4 µM,1 µM,10 µM,< 0.11 µM,,32 µM,,> 182 µM,69.4 µM,363 µM

# More lines, main results first:
EC50 (Hepatitis B virus),EC50 (Human gammaherpesvirus 4 [1]),EC50 (Human gammaherpesvirus 4 [3]),EC50 (Human betaherpesvirus 5),EC50 (Human alphaherpesvirus 1 [4]),EC50 (Human alphaherpesvirus 1 [6]),EC50 (Human alphaherpesvirus 2),EC50 (Murid betaherpesvirus 1),EC50 (Daudi [8]),Compound,CC50 (CCRF-CEM),CC50 (HFF [2]),CC50 (Daudi [5]),CC50 (HFF [7]),CC50 (MEF)
> 10 µM,36.5 µM,11 µM,> 365 µM,> 38 µM,15 µM,> 50 µM,,,CC(C)Nc1nc(N)nc2c1ncn2/C=C1/C[C@@H]1CO,> 100 µM,> 365 µM,168 µM,,
7.3 µM,23.4 µM,7.3 µM,> 66 µM,3 µM,7 µM,4 µM,1.45 µM,,CCCCCOc1nc(N)nc2c1ncn2/C=C1/C[C@@H]1CO,87 µM,,> 165 µM,41.9 µM,224 µM
12.6 µM,29.2 µM,12.6 µM,8.4 µM,8 µM,7 µM,12 µM,0.35 µM,,Nc1nc(OCC2CC2)c2ncn(/C=C3/C[C@@H]3CO)c2n1,41 µM,,112 µM,112 µM,278 µM
> 10 µM,6.2 µM,0.66 µM,12 µM,15 µM,20 µM,22 µM,0.15 µM,0.85 µM,Nc1nc(NC2CC2)c2ncn(/C=C3/C[C@@H]3CO)c2n1,70 µM,,176 µM,213 µM,367 µM
5.1 µM,> 172 µM,6.3 µM,> 69 µM,9 µM,1 µM,10 µM,1.4 µM,,CCCSc1nc(N)nc2c1ncn2/C=C1/C[C@@H]1CO,> 100 µM,,> 172 µM,283 µM,343 µM
> 20 µM,> 159 µM,> 20 µM,180 µM,> 50 µM,15 µM,> 50 µM,,,Nc1nc(NC2CCCCC2)c2ncn(/C=C3/C[C@@H]3CO)c2n1,> 100 µM,> 318 µM,> 159 µM,,
20 µM,> 8 µM,> 20 µM,> 80 µM,> 50 µM,> 100 µM,> 50 µM,> 16 µM,,Nc1nc(S)c2ncn(/C=C3/C[C@@H]3CO)c2n1,29 µM,,35.3 µM,,64 µM
> 20 µM,> 181 µM,> 20 µM,> 60 µM,> 50 µM,> 100 µM,> 50 µM,11.9 µM,,Nc1nc(NCCO)c2ncn(/C=C3/C[C@@H]3CO)c2n1,> 100 µM,,> 181 µM,,> 362 µM
> 20 µM,0.56 µM,> 20 µM,10.8 µM,25 µM,2.5 µM,> 50 µM,1.7 µM,7 µM,Nc1nc(NCC2CC2)c2ncn(/C=C3/C[C@@H]3CO)c2n1,> 100 µM,,> 175 µM,,279 µM
> 10 µM,> 185 µM,~2 µM,> 74 µM,20 µM,6 µM,50 µM,0.37 µM,,C#CCNc1nc(N)nc2c1ncn2/C=C1/C[C@@H]1CO,> 100 µM,,> 185 µM,306 µM,> 370 µM
